# In US8961986B2, “Peptide composition” (Apitope Technology (Bristol) Limited, priority 2000, dated 2015):
# Entries after “also recorded” stand apart in the source; their conditions may differ.
# Tests used:
# [1] = test system: 81-111-responsive T-cell line and sub-lines; assay: Reactivity of T cell lines and clones from peptide-primed mice to MBP 81-111 region peptides; assay type: cell-based
# Protocol: In order to investigate T cell reactivity to the 81-111 region of MBP, lymph node cells from mice primed with 81-111 are stimulated with 81-111 in vitro and these cells are tested with a panel of overlapping 10-mer peptides with two residue shifts covering the 81-111 region (namely: 81-90, 83-92, 85-94, 87-96, 89-98, 91-100, 93-102, 95-104, 97-106, 99-108 and 101-111). The response pattern to peptides covering the 89-101 show stimulatory capacity for 5 adjacent peptides (N terminal 87-96 through to 95-104) reflecting the presence of at least two (and perhaps three) distinct epitopes.
# In order to investigate this region further, three sub-lines are generated from the original 81-111-responsive T-cell line and these are retested with a panel of overlapping 10-mer peptides with one residue shift covering the 84-106 region. The results reveal the existence of three distinct but overlapping T cell epitopes within the 89-101 sequence: 89-94, 92-98 and 95-101 (see FIG. 14).
# [2] = test system: draining lymph node cells; assay: Tolerance experiments with 89-101 and 87-96: lymph node cell recall proliferation; assay type: in vivo, Mice
# Protocol: In order to test this possibility tolerance experiments are performed with the 89-101 and 87-96 peptides (FIGS. 15a and b).
# Mice received 200 μg of peptide in PBS or PBS alone intraperitoneally on days −8, −6 and −4 prior to 100 μg of peptide in complete Freunds adjuvant on day 0. After 10 days, draining lymph node cells (6×10^5 per well) were cultured in X-Vivo 15 medium supplemented with 5×10^−5M 2-mercaptoethanol and […] L-glutamine with or without antigen for 72 hours. Cultures were pulsed for the final 16 hours with 0.5 μCi ^3H.thymidine and incorporation measured using a liquid scintillation counter. Results are expressed as means counts per minute for triplicate cultures.
# [3] = test system: experimental autoimmune encephalomyelitis (EAE); conditions: cited from earlier work
# I-A^S = target: T1, I-A^S (Mus musculus, UniProt P06345+P14437); conditions: cited from earlier work
# T1 sequence (P14437 1-233): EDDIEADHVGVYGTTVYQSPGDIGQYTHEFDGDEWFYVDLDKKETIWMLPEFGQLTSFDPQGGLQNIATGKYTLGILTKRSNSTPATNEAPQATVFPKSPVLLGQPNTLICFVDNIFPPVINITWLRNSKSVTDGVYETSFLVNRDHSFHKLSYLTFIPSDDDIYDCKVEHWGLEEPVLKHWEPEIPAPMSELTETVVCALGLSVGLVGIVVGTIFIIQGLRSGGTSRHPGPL
# T1 sequence (P06345 28-263): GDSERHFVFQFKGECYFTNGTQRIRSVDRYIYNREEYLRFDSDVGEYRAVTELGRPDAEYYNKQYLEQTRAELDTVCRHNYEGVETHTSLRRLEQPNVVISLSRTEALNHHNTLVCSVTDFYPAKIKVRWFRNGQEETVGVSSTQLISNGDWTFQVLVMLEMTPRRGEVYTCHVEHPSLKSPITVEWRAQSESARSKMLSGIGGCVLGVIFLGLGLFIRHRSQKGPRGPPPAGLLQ
# [4] = test system: MBP-specific T cell clones; assay: T cell clone (TCC) proliferation assay, fine mapping of MBP epitopes; assay type: cell-based, human; conditions: TCC from MS patients and healthy individuals, proliferative response
# Protocol: MBP-specific T cell lines (TCL) are generated from 8 MS patients and 2 healthy control donors. PBMC from each subject are separated as described above and plated out at 1×10^6 cells/ml in 6-well plates in the presence of MBP (50 μg/ml); a portion of PBMC from each subject is regularly frozen and stored for subsequent restimulations. Seven days later the cells are fed with fresh medium containing 2% IL-2 (Lymphocult-HT; Biotest LTD., Birmingham, UK), and on day 12 of culture all cells are restimulated with antigen, IL-2 and irradiated (2500 Rad) autologous PBMC as a source of antigen presenting cells (APC), at a cell ratio of 1T cell:5 APC. Cells are expanded in IL-2 every 3-4 days, and on day 14 are restimulated with antigen, IL-2 and PBMC, as described above. On the day of the first restimulation cells are examined for specific proliferation to MBP. Briefly, 2×10^4 T cells and 1×10^5 irradiated autologous PBMC are cultured in triplicate, in 96-well round-bottom plates, in the presence of MBP. Cells are cultured for 2 days and pulsed with (^3H)-Thymidine at 0.4 μCi/well during the last 18 hours of the culture. Cells are then harvested as described above, and a TCL is considered to be MBP-specific with a δcpm>1000 and a SI>3.
# Following 3 restimulation/expansion cycles TCL are cloned using PHA (Sigma, Poole, Dorset, UK)) in the presence of autologous irradiated PBMC as APC. T cells are plated under limiting dilution conditions at 0.1 cell/well, 0.3 cell/well and 1 cell/well and cultured in Terasaki plates (Nunc International, Costar) with 1×10^4 irradiated PBMC, 5 μg/ml PHA, and 2% IL-2. After 10-12 days, growth-positive wells are expanded onto 96-well round-bottom plates, using 1×10^5 irradiated PBMC, 5 μg/ml PHA and IL-2. Three days later wells are fed with fresh medium containing IL-2, and on day 7 the clones are expanded onto 48-well plates using 5×10^5 irradiated PBMC, PHA and IL-2; at this point clones are tested in proliferation assays for specific responses to MBP. MBP-specific clones are expanded a week later onto 24-well plates, using 1×10^6 irradiated PBMC with PHA or Dynabeads (Dynal, UK) and IL-2. The clones are maintained in 24-well plates using a 7-10 day restimulation/expansion cycle, essentially as described above. The ability of T cell clones (TCC) to recognize the panel of MBP peptides is tested by proliferation assays, as described above.
# TCC are generated from 8 MS patients and 2 healthy individuals, and used to clarify the fine specificity of the peptide regions identified in the kinetic response assay. The specificity of each TCC is tested by its proliferative response to the panel of 15-mer peptides. Clone SD:A7 recognised region 1-24, and within this region this TCC responded to a.a. 5-19. Region 30-54 is recognised by 4 clones (MS49:D3, MS49:C8, MS49:A8, MS49:B6) and the epitope within this region is 30-44. […] Five clones (MS43:A7, MS41:B6, MS41:A2, MS41:C6, N5:8) recognize a.a. 83-99 which is contained in region 75-99. One patient produced TCC specific for a.a. 110-124 (MS60:A2, MS60:B3), contained within the 105-129 pool, and another TCC from the same patient is specific to 130-144 (MS60:E1), found within the 120-144 region. Five individuals produce clones which recognize epitopes within the region 135-159: MS60:F7, MS60:D1, MS59:F1 and N5:19 recognizes a.a. 140-154; MS57:A1 is specific to 140-149, and TCC MS17:A3 responds to sequence 130-144. […] Lastly, region 150-170 is recognized by 2 clones specific to a.a. 156-169.
# HLA-DR2 = HLA-DR2 binding of cocktail peptides; set-up: species or system human
# [5] = test system: lymphocytes from HLA:DR2 (DRB1*1501) transgenic mice; assay: Induction of tolerance with Apitope MS6 in HLA:DR2 transgenic mouse, lymph node cell proliferation; assay type: in vivo
# Protocol: HLA:DR2 transgenic mice aged 8-12 weeks were used in the study. The mice were tolerized by pre-treatment with 100 μg of Apitope MS6 in […] phosphate buffered saline (PBS) or […] alone, by intranasal administration on days −8, −6 and −4 prior to immunisation on day 0.
# Following tolerization, mice were immunised subcutaneously with […] an emulsion containing an equal volume of Complete Freund's Adjuvant (CFA) and PBS containing 200 μg of Apitope MS6 and 400 μg heat-killed Mycobacterium tuberculosis. A control group of mice, previously tolerized with PBS intranasally, were immunised without peptide.
# At 10 days post subcutaneous immunisation, draining popliteal and inguinal lymph nodes were removed and T-cell activation was assessed by assaying the proliferation of T-cells in response to various concentrations of Apitope MS6. Proliferation was measured by [^3H]-Thymidine incorporation, and expressed as the stimulation index (SI=corrected counts per minute (ccpm) culture containing peptide/ccpm culture without peptide).
# [6] = test system: MHC class I or II molecule; conditions: cited from earlier work
# [7] = test system: fixed Mgar (HLA-DR2+ve) APC presenting to T cells from DR2:MBP 82-100 transgenic mouse; assay: Antigen-presentation assay using an APIPS (fixed APC) with T cells from DR2:MBP82-100 transgenic mouse; assay type: cell-based; conditions: live or p-formaldehyde-fixed Mgar cells, 72 h
# Protocol: Presentation of peptides to T cells isolated from DR2:MBP82-100 transgenic mouse was essentially as described above except APC were plated at 5×10^5 cells per well, T cells were plated at 1×10^5 cells per well, and incubation was allowed to proceed for 72 h prior to the addition of [^3H]-thymidine.
# For any given epitope, there may exist one or more apitopes, capable of being presented to APC without further processing. The presence of apitopes within two regions of MBP is investigated by incubating live or p-formaldehyde-fixed Mgar (HLA-DR2+ve) cells are incubated with overlapping peptides in serum from MBP regions 77-100 (FIG. 12) and 125-148 (FIG. 13) or in serum alone. T cells were added and after 72 h (FIG. 12) or after 48 h (FIG. 13) the T cell proliferative response was measured by ^3H-thymidine uptake. For MBP 77-100, the T cells are isolated from a DR2:MBP 82-100 transgenic mouse, whereas for MBP 130-144 the T cell clone MS17:A3 is used.
# [8] = test system: splenocytes from double transgenic mice; assay: Induction of tolerance with Apitope MS7 in HLA:DR2 / TCR MBP 82-100 double-transgenic mice, splenocyte proliferation; assay type: in vivo
# Protocol: (§1) Groups of 6 or 7 age (8-12 weeks) and sex matched double transgenic mice were used. In the first experiment one group was treated ten times intranasally with 100 μg Apitope MS7 in […] at regular intervals over a period of three weeks. The control group received PBS alone. In the second experiment the same amount of peptide was given by subcutaneous/intradermal administration in […] PBS. The control group received the same volume of PBS.
# Three days after the last administration of peptide or PBS, the spleens were harvested and cell suspensions prepared. The splenocytes were incubation with 0.5 or 5 μg/ml Apitope MS7, and assessed for proliferation by [^3H]-Thymidine incorporation after 48, 72 and 96 hours of culture. Results are expressed as stimulation indices (SI=counts per minute (cpm) of culture containing antigen/counts per minute without antigen).
# [9] = test system: splenocytes from double transgenic mice; assay: Induction of tolerance with Apitope MS7 in double-transgenic mice, splenocyte cytokine ELISA; assay type: in vivo; conditions: 48 hr cultures; subcutaneous/intradermal treatment vs PBS
# Protocol: as §1
# In the second experiment, where tolerance induction was induced via the subcutaneous/intradermal route, cell culture supernatants from the splenocytes were collected at 48 and 72 hrs of culture, and assayed for the presence of IFN-γ and interleukin-2 (IL-2) using an enzyme linked immunosorbant assay (ELISA).
substance,measurement,setting,value
"MBP 92-98: cryptic T cell epitope within MBP 89-101 (IRLFSRD; UniProt P02686 92-98, looked up, fragment)",T cell clones from mice primed with the 89-101 peptide responding,[1]; six clones generated,all six clones
"MBP 89-101: myelin basic protein (MBP) peptide 89-101, immunodominant antigen, not tolerogenic (PHLIRLFSRDAPG; UniProt P02686 89-101, looked up, fragment)",response of the three epitope-specific T cell lines (TCL) to the peptide,"[1]; TCL specific for 89-94, 92-98, 95-101",All three TCL respond
same,effect of peptide as tolerogen on recall responses after priming with 87-96,"[2]; 200 μg i.p. days -8, -6, -4, priming 87-96 in CFA day 0, lymph node cells day 10",failed to inhibit recall responses to either 87-96 or 89-101
same,in vitro recall response after priming with 87-96,"[2]; PBS pre-treated mice, lymph node cells",weaker response
same,inducing tolerance when administered in solution,[3]; Anderton and Wraith (1998),ineffective at inducing tolerance
same,prevention of / protection against EAE by peptide in soluble form,[3]; EAE induced with whole myelin or the 89-101 peptide,does not prevent; also recorded: fails to protect against EAE
same,immunogenicity: priming for T cell reactivity and induction of EAE,[3]; after immunisation,very effective immunogen
same,binding affinity for I-A^S,I-A^S,relatively high affinity
H-Gly-Phe-Lys-Gly-Val-Asp-Ala-Gln-Gly-Thr-Leu-Ser-Lys-Ile-Phe-NH2 (H-GFKGVDAQGTLSKIF-NH2) [MBP 140-154],T cell clones (TCC) recognising the peptide,[4],responded
same,T cell clones (TCC) recognising the peptide,[4]; listed as 140-154,recognizes
same,HLA-DR2 binding,HLA-DR2,HLA-DR2 binding
same,SI median of lymphocyte proliferation after intranasal pre-treatment,"[5]; Group B, 100 μg intranasal days -8, -6, -4, recall peptide 150 μg/ml (PBS group SI median 2.5 to 10)",3
same,tolerance induction in lymphocytes from HLA-DR2 mice,[5]; intranasal pre-treatment,has induced tolerance
same,identified as apitope in WO 03/064464,[6],apitopes
H-Glu-Asn-Pro-Val-Val-His-Phe-Phe-Lys-Asn-Ile-Val-Thr-Pro-Arg-Thr-Pro-NH2 (H-ENPVVHFFKNIVTPRTP-NH2) [MBP 83-99],T cell clones (TCC) recognising the peptide,[4],Five
same,apitope within MBP region 77-100,[7],shown to act as apitopes
same,HLA-DR2 binding,HLA-DR2,HLA-DR2 binding
same,"mean SI of splenocyte proliferation, intranasal treatment","[8]; 72 hrs, cultures with 5 μg/ml 83-99, PBS control mean SI 89",17
same,"mean SI of splenocyte proliferation, subcutaneous treatment",[8]; PBS treated animals mean SI 124,49
same,"splenocyte proliferation after treatment, both routes",[8]; intranasal and subcutaneous/intradermal,striking reduction in proliferation
same,IFNγ secretion in splenocyte culture supernatants,[9],impressive reduction in secretion
same,IL-2 secretion in splenocyte culture supernatants,[9],impressive reduction in secretion
